This is an account of results in US20060025458A1, “Alkylammonium compounds as antifungal and antitrypanosomal agents” (University of Connecticut, priority 2004, published 2006).

Where two headings read alike, the source gives them in different places.

Data set [1] deals with promastigote form of L. major. As to the kind of experiment: Growth inhibition of Leishmania major promastigotes. In kind it is cell-based. Particulars: read-out: IC50 of choline analogs in Leishmania major, WT. The procedure: For those drugs, IC50 values were determined.
Another data set concerns S. cerevisiae. The data set is described as follows: Liquid growth inhibition assay of S. cerevisiae (OD600). In kind it is cell-based, Saccharomyces cerevisiae. Conditions: for Inhibition of S. cerevisiae growth (in words): structure-activity comparison, Examples 2-4. The procedure: Strains and Growth Conditions: Wild-type (BY4741: Mata his3Δ1 leu2Δ0 met15Δ0 ura3Δ0) and mutant (hnm1Δ, psd1Δ, cki1Δ, pem1Δ, ept1Δ, cpt1Δ, eki1Δ, psd2Δ, pct1Δ, ect1Δ, pem2Δ) S. cerevisiae strains used in this study were purchased from Research Genetics (Invitrogen, USA). These strains were grown on YPD (1% yeast extract, 2% dextrose and 2% peptone) or synthetic complete medium (SD, 1.7% yeast nitrogen base, 5% ammonium sulfate and 2% dextrose). The Nigerian strain of P. falciparum was propagated in human red blood cells at 4% hematocrit by the method of Trager and Jensen (1976). Plate growth assays were performed by growing wild-type and mutant yeast strains in YPD to mid-log phase. Cultures were serially diluted 1:10 starting with a density of 3×10^7 cells/ml. The growth of cells was monitored by spotting 3 μl of each dilution onto solid medium in the absence or presence of 5 μM of G25.
Twenty-one analogs including first, second and third generation (E2a, E6, E9, E13, E24, F4, G2, G4, G5, G14, GI5, G25, H5, L1, L4, M34, M53, MS1, T3 and T4) compounds (provided by Dr. Henri Vial, City, Country) were tested (FIG. 4). The choice of the compounds was such that they represent all possible structural features introduced during the optimization process for enhancing antimalarial activity as determined using the combinatorial chemistry techniques.
The antimalarial drug G25 inhibits the growth of Saccharomyces cerevisiae. […] Growth inhibition was assessed by measuring the OD600 and comparing it to that of the wild-type strain grown under the same conditions in the absence of the compound. […] This IC50 value is in the range of the predicted intracellular concentration of G25 in P. falciparum due to the accumulative properties inside the infected erythrocytes.

Data set [2] has as its system P. falciparum. Particulars: Ancelin and Vial, 1986; read-out: IC50, lethal to P. falciparum in vitro; cited from earlier work.
Data set [3] concerns P. falciparum-infected erythrocytes. Particulars: after 3 h incubation; cited from earlier work.
A further data set deals with wild-type S. cerevisiae. The procedure: (§1) Uptake Assays: Yeast strains were grown in synthetic complete medium supplemented as required to maintain cell growth to an optical density of 0.55-0.65 at 600 nm. Cells were harvested by centrifugation at 3,200×g for 10 min at 4° C., washed twice in cold PBS and resuspended in nitrogen-free medium (SD without ammonium sulfate). […] After 3 min incubation at 30° C. with shaking, transport was immediately stopped by filtration through Whatman GF/C glass microfiber paper. The filters were washed three times with 5 ml ice-cold PBS, air dried, and analyzed in a scintillation counter. For time course uptake, 3-4×10^7 cells were incubated at 30° C. in 1 ml of nitrogen-free medium in the presence of 25 nM [^3H]-T16 (69 Ci/mmol) for different time periods (1, 2, 3, 4, 5, 7, 10 and 15 min) after which 5 ml of cold PBS was added to stop the reaction. Kinetic parameters were determined after 4 min of incubation at 30° C. in the presence of [^3H]-T16 at concentrations ranging from 25 nM to 75 μM (69 Ci - 23 mCi/mol). The samples were centrifuged at 4° C. for 10 min at 1,200×g, the supernatants were discarded and the cells were then resuspended in 5 ml of cold PBS. The reaction was terminated by filtering the cell suspension through GF/C membranes that were pretreated with 15 ml of 0.05% polyethyleneimine (PEI). The filters were washed twice with 5 ml of cold PBS, air dried, and analyzed in a scintillation counter. The cellular accumulation ratio (CAR) was calculated as previously described for T16 and G25 (Biagini, et al., 2003; Wengelnik, et al., 2002).

The test system of data set [4] is P. falciparum. As to the kind of experiment: P. falciparum growth in vitro (antimalarial activity). In kind it is cell-based, Plasmodium falciparum. Conditions: predicted by QSAR and confirmed experimentally; read-out: IC50, in vitro anti-malarial activity.
The subject of data set [5] is choline transport in the wild-type strain of S. cerevisiae. As to the kind of experiment: [methyl-3H]-choline uptake in wild-type S. cerevisiae. In kind it is cell-based, Saccharomyces cerevisiae. Particulars: 20-fold excess over [methyl-3H]-choline. The method, then: as §1
Data set [6] deals with hnm1Δ S. cerevisiae strain lacking the choline transporter gene HNM1. The data set is described as follows: [3H]-T16 transport in hnm1 deletion strain. The data set is classed as cell-based, Saccharomyces cerevisiae. Conditions: 4 min, 30° C. The procedure:
as §1, with “The samples were centrifuged at 4° C. for 10 min at 1,200×g, the supernatants were discarded and the cells were then resuspended in 5 ml of cold PBS. The reaction was terminated by filtering the cell suspension through GF/C membranes that were pretreated with 15 ml of 0.05% polyethyleneimine (PEI).” left out

Another data set has as its system C. albicans strain BWP17. The data set is described as follows: Growth inhibition of C. albicans in vitro. Conditions: read-out: IC50, C. albicans proliferation. In kind it is cell-based, Candida albicans. The procedure:
G15, E24 and C35 inhibited at higher concentrations (>10 μM).

The conditions of data set [7]: cited from earlier work.

For the compound `CCCCCCCCCCCC[N+](C)(C)CCO` [F4], the IC50 in data set [1] worked out at 4100 nM.
Consider `CCCCCCCCCCCC[N+](CCC)(CCC)CCC.[Br-]` [E13], for which the “Inhibition of S. cerevisiae growth (in words)” value (shortened to “Inhibition … (in words)”) with S. cerevisiae is recorded as “no improvement”. Further, in data set [1], the IC50 stood at 350 nM.
With `C[N+](C)(C)CCCCCCCCCC[N+](C)(C)C` [DMA, decamethonium], the IC50 in the data set on P. falciparum [2] is 1000 nM.
Regarding `N=C(N)CCCCCCCCCCCCC(=N)N` [M34], in data set [1], the IC50 was found to be 3570 nM.
In the case of `CCCCCCCCCCCC[N+](C)(C)C.[Br-]` [E6], the “Inhibition … (in words)” value in the data set with S. cerevisiae is given as “not an effective drug”. Moreover, the “IC50, growth of S. cerevisiae” value in the data set with S. cerevisiae (wild-type W303 and BY4741, 10^5 cells/ml, YPD, 30° C., 24 h) is recorded as “high μM range”. The IC50 in data set [1] is 2150 nM.
As a reminder, the Km is the concentration of substrate that gives half-maximal velocity. As to `CCc1sc[n+](CCCCCCCCCCCC[n+]2csc(CC)c2C)c1C.[I-].[I-]` [T16, 1, 12-dodecanemethylene bis[4-methyl-5-ethylthiazolium]diiodide], the “cellular accumulation ratio (CAR)” value in data set [3] was around 500. In addition, in the data set on wild-type S. cerevisiae, the “cellular accumulation ratio (CAR) in yeast” value is listed as “less than 7”. Moreover, the Km in the data set with wild-type S. cerevisiae (read-out: apparent Km of transport, wild-type, 4 min, 30° C., Lineweaver-Burk) amounted to 5.05 ± 0.26 µM; in data set [6], 7.45 ± 1.98 µM. For the same compound, the “time during which uptake was linear” value in the data set on wild-type S. cerevisiae (wild-type, 30° C., 25 nM) came out at 12 min. Also, the “maximum velocity Vmax of transport” value in the data set with wild-type S. cerevisiae (wild-type, 4 min, 30° C.) was determined as 0.98±0.48 pmol/min×10^7 cells. The IC50 in the data set with P. falciparum [4] was around 16 nM; in the data set on S. cerevisiae (wild-type strain BY4741, 1×10^4 cells/ml, liquid medium, 30° C., 16 h, read-out: IC50, inhibition of yeast growth) it was around 4000 nM. Moreover, in data set [5], the “inhibition of choline transport” value came out at 26%. For the same compound, the Vmax of transport in data set [6] turned out to be 0.76±0.21 pmol/min/10^7 cells.
`CCCCCCCCCCCCCCCCCC[N+](C)(C)C.[Cl-]` [E9]: the IC50 in the data set with C. albicans strain BWP17 was around 1000 nM; in the data set on S. cerevisiae (wild-type W303 and BY4741, 10^5 cells/ml, YPD, 30° C., 24 h, read-out: IC50, growth of S. cerevisiae), 250 to 500 nM; in data set [1] it was 110 nM. The “Inhibition … (in words)” value with S. cerevisiae is reported as “inhibited”.
Turning to `CCCCCCCCCC[N+](C)(C)C` [DTMA, decyltrimethylammonium], the IC50 in the data set with P. falciparum [2] is 700 nM.
`CCCCCCCCCCCC[N+]1(C)CCCC1.[Br-]` [E24]: in [1], the IC50 was found to be 700 nM.
In the case of `C[N+]1(C)CCOC(O)(c2ccc(-c3ccc(C4(O)C[N+](C)(C)CCO4)cc3)cc2)C1` (centres unmarked) [HC3, hemicholinium 3], the IC50 in the data set with P. falciparum [2] was 4000 nM.
For Amphotericin B, the half-life result in data set [7] (IV infusion) is given as “about 2 weeks”. Moreover, the “renal impairment, share of patients” value in data set [7] (patients) is listed as 80%.
As to `C[N+](C)(CCO)CCCCCCCCCCCCCCCC[N+](C)(C)CCO.[Br-].[Br-]` [H5], the IC50 with C. albicans strain BWP17 was around 5000 nM. The “Inhibition … (in words)” value in the data set with S. cerevisiae is “better efficacy”.
